Test results reported in US20060167084A1, “Delta-9-THC compositions and methods for treating symptoms associated with multiple sclerosis” (Unimed Pharmaceuticals, Inc., priority 2003, published 2006).

Columns and labels:
[1] = system: spasticity related to multiple sclerosis; assay: Ashworth score of spasticity, randomized placebo-controlled MS study; type: in vivo, human; details: baseline to 13 weeks' follow-up
[2] = system: patients with multiple sclerosis; assay: Timed 10 meter walk; type: in vivo, human; details: baseline to follow-up (visit 7)
[3] = system: patients with multiple sclerosis; assay: Category-rating scales of symptoms (patient reported secondary outcomes); type: in vivo, human
[4] = system: patients with multiple sclerosis; assay: Patient assessment of treatment benefit at visit 8; type: in vivo, human
[5] = system: patients with multiple sclerosis; assay: Adverse events reported by patients

CCCCCc1cc(O)c2c(c1)OC(C)(C)[C@@H]1CCC(C)=C[C@@H]21 [delta-9-THC, (6aR-trans)-6a,7,8,10a-tetrahydro-6,6,9-trimethyl-3-pentyl-6H-dibenzo>b,d!pyran-1-ol]
Mean (SD) change in Ashworth score, lower-body muscle groups [1]: 1.39 (5.21)
Mean (SD) change in Ashworth score, upper-body muscle groups [1]: 0.48 (4.70)
Mean (SD) change in total Ashworth score (baseline minus follow-up) ([1]; all muscle groups): 1.86 (7.95)
Reduction of median time taken to walk 10 meters [2]: 12%
Depression: Deterioration, patients ([3]; number of patients): 42
Depression: Improvement, patients ([3]; number of patients): 36
Depression: Same, patients ([3]; number of patients): 47
Energy: Deterioration, patients ([3]; number of patients): 49
Energy: Improvement, patients ([3]; number of patients): 61
Energy: Same, patients ([3]; number of patients): 63
Irritability: Deterioration, patients ([3]; number of patients): 32
Irritability: Improvement, patients ([3]; number of patients): 37
Irritability: Same, patients ([3]; number of patients): 42
Pain: Deterioration, patients ([3]; number of patients): 22
Pain: Improvement, patients ([3]; number of patients): 64
Pain: Same, patients ([3]; number of patients): 43
Shake/tremor: Deterioration, patients ([3]; number of patients): 32
Shake/tremor: Improvement, patients ([3]; number of patients): 52
Shake/tremor: Same, patients ([3]; number of patients): 44
Sleep: Deterioration, patients ([3]; number of patients): 24
Sleep: Improvement, patients ([3]; number of patients): 71
Sleep: Same, patients ([3]; number of patients): 57
Spasms: Deterioration, patients ([3]; number of patients): 37
Spasms: Improvement, patients ([3]; number of patients): 81
Spasms: Same, patients ([3]; number of patients): 49
Spasticity: Deterioration, patients ([3]; number of patients): 47
Spasticity: Improvement, patients ([3]; number of patients): 89
Spasticity: Same, patients ([3]; number of patients): 40
Tiredness: Deterioration, patients ([3]; number of patients): 76
Tiredness: Improvement, patients ([3]; number of patients): 35
Tiredness: Same, patients ([3]; number of patients): 46
Depression: Deterioration ([3]; percent of patients): (34%)
Depression: Improvement ([3]; percent of patients): (29%)
Depression: Same ([3]; percent of patients): (38%)
Energy: Deterioration ([3]; percent of patients): (28%)
Energy: Improvement ([3]; percent of patients): (35%)
Energy: Same ([3]; percent of patients): (36%)
Irritability: Deterioration ([3]; percent of patients): (29%)
Irritability: Improvement ([3]; percent of patients): (33%)
Irritability: Same ([3]; percent of patients): (38%)
Pain: Deterioration ([3]; percent of patients): (17%)
Pain: Improvement ([3]; percent of patients): (50%)
Pain: Same ([3]; percent of patients): (33%)
Shake/tremor: Deterioration ([3]; percent of patients): (25%)
Shake/tremor: Improvement ([3]; percent of patients): (41%)
Shake/tremor: Same ([3]; percent of patients): (34%)
Sleep: Deterioration ([3]; percent of patients): (16%)
Sleep: Improvement ([3]; percent of patients): (47%)
Sleep: Same ([3]; percent of patients): (38%)
Spasms: Deterioration ([3]; percent of patients): (22%)
Spasms: Improvement ([3]; percent of patients): (49%)
Spasms: Same ([3]; percent of patients): (29%)
Spasticity: Deterioration ([3]; percent of patients): (27%)
Spasticity: Improvement ([3]; percent of patients): (51%)
Spasticity: Same ([3]; percent of patients): (23%)
Tiredness: Deterioration ([3]; percent of patients): (48%)
Tiredness: Improvement ([3]; percent of patients): (22%)
Tiredness: Same ([3]; percent of patients): (29%)
Symptom improvement Bladder: No, patients ([4]; visit 8, number of patients): 97
Symptom improvement Bladder: Yes, patients ([4]; visit 8, number of patients): 67
Symptom improvement Pain: No, patients ([4]; visit 8, number of patients): 64
Symptom improvement Pain: Yes, patients ([4]; visit 8, number of patients): 64
Symptom improvement Spasticity: No, patients ([4]; visit 8, number of patients): 73
Symptom improvement Spasticity: Yes, patients ([4]; visit 8, number of patients): 108
Symptom improvement Tremor: No, patients ([4]; visit 8, number of patients): 67
Symptom improvement Tremor: Yes, patients ([4]; visit 8, number of patients): 44
Symptom improvement Bladder: No ([4]; visit 8, percent of patients): (59%)
Symptom improvement Bladder: Yes ([4]; visit 8, percent of patients): (40%)
Symptom improvement Pain: No ([4]; visit 8, percent of patients): (50%)
Symptom improvement Pain: Yes ([4]; visit 8, percent of patients): (50%)
Symptom improvement Spasticity: No ([4]; visit 8, percent of patients): (40%)
Symptom improvement Spasticity: Yes ([4]; visit 8, percent of patients): (60%)
Symptom improvement Tremor: No ([4]; visit 8, percent of patients): (60%)
Symptom improvement Tremor: Yes ([4]; visit 8, percent of patients): (40%)
Incidences of MS relapse by comparison with placebo ([5]; in words): greatly reduced
Adverse event: Blocked/insertion of suprapubic catheter ([5]; number of events reported): 0
Adverse event: Constipation ([5]; number of events reported): 0
Adverse event: Grand mal seizure ([5]; number of events reported): 0
Adverse event: MS relapse or possible relapse ([5]; number of events reported): 1
Adverse event: Other ([5]; number of events reported): 11
Adverse event: Pneumonia ([5]; number of events reported): 2
Adverse event: Urinary tract infection ([5]; number of events reported): 3
